Literature values in paper PMC7494335 (Science Advances, 2020).

Test system: humans
Details: in vivo

Question: Which “pain if injected alone / addition to Dendrocnide extract” value does the source give for `NCCc1c[nH]cn1` [histamine] here?
Answer: Its value is “neither changed the nature of the pain caused by Dendrocnide extract nor caused substantial long-lasting pain if injected alone”.
